According to patent US9120749B2, “Quinoline derivatives and MELK inhibitors containing the same” (ONCOTHERAPY SCIENCE, INC., priority 2010, dated 2015):
Structures can show the parent of a compound that is named as a salt. Where two headings read alike, the source gives them in different places.

Key:
22Rv1 cells = assay: Cell-based assay: anti-proliferative activity, Cell Counting Kit-8, 72 hours (22Rv1)
DU4475 cells [1] = assay: Cell-based assay: anti-proliferative activity, Cell Counting Kit-8, 72 hours (DU4475)
A549 cells = assay: Cell-based assay: anti-proliferative activity, Cell Counting Kit-8, 72 hours (A549); settings: 72 hours
Summary of the method: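 A549 cells were seeded in 96-well plates and exposed to candidate inhibitors for 72 hours. Cell growth was then measured with Cell Counting Kit-8, and IC50 values were calculated from the resulting growth data.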

T47D cells = assay: Cell-based assay: anti-proliferative activity, Cell Counting Kit-8, 72 hours (T47D)
Summary of the method: (§1)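 Cellular growth is read by CCK-8 colorimetric kit 72 h after inhibitor addition to seeded cells, and IC50 values are derived from the resulting data; MELK protein levels in these lines are checked beforehand by immunoblotting whole crude lysate.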

MELK = MELK (Homo sapiens, UniProt Q14680); assay: Kinase assay: MELK activity, phosphorylation of FITC-labeled histone H3 peptide measured by IMAP fluorescence polarization; type: biochemical; settings: read-out: IC50 (μM) (kinase assay)
Summary of the method: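 FP readout: FITC-histone H3 peptide phosphorylation, read 0.5 h (RT) after stopping with 3x volume of IMAP progressive binding solution. Final DMSO 1%.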

HT-1197 cells = assay: Cell-based assay: anti-proliferative activity, Cell Counting Kit-8, 72 hours (HT-1197, negative control without MELK expression); settings: Homo sapiens, HT1197, 72 h, 72 hours
Summary of the method: as §1

DU4475 cells [2] = assay: Cell-based assay: anti-proliferative activity, Cell Counting Kit-8, 72 hours (DU4475); settings: Homo sapiens, DU-4475, 72 h
[3] = HT1197 cells (negative control, no MELK expression)
[4] = HT1197 cells (negative control)

Chain of MELK (Q14680 whole entry, looked up): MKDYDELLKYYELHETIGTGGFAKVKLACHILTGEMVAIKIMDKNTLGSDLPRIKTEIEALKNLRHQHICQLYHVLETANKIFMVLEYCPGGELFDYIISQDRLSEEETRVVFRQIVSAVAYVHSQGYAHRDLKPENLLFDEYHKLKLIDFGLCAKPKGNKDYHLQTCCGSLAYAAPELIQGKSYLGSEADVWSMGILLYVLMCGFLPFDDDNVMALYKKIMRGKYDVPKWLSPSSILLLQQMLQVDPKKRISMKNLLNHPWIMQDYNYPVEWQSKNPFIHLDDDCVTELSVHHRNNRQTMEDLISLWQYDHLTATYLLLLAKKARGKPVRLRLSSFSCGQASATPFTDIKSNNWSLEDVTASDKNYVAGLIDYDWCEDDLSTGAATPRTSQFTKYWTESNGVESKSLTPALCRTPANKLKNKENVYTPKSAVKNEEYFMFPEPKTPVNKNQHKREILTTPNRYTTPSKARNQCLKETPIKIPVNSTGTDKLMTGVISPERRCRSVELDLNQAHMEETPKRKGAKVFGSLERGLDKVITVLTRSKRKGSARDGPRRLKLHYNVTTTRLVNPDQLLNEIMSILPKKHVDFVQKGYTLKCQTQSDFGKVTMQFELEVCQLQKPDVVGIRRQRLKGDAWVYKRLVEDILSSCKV

Row | SMILES | IC50 (22Rv1 cells; Homo sapiens, 22Rv1, 72 h) | IC50 (DU4475 cells [1]; Homo sapiens, DU-4475, 72 h) | IC50 (A549 cells; Homo sapiens, A549, 72 h) | IC50 (T47D cells; Homo sapiens, T47D, 72 h) | IC50 (MELK) | IC50 (HT-1197 cells; [3]) | IC50 (22Rv1 cells; hydrochloride) | IC50 (DU4475 cells [1]; hydrochloride) | IC50 (A549 cells; hydrochloride) | IC50 (T47D cells; 72 hours, hydrochloride) | IC50 (MELK; hydrochloride) | IC50 (DU4475 cells [2]) | IC50 (HT-1197 cells; [4])
1 | CC(=O)c1cnc2ccc(-c3cc(Cl)c(O)c(Cl)c3)cc2c1Nc1cccc(CCN2CCCC2)c1 [Example 801, 1-{6-(3,5-Dichloro-4-hydroxyphenyl)-4-[3-(2-(pyrrolidin-1-yl)ethyl)phenylamino]quinolin-3-yl}ethanone] | 0.15 µM | 0.06 µM | 0.081 µM | 0.37 µM | 0.004 µM |  |  |  |  |  |  |  | 
2 | CCC(=O)c1cnc2ccc(-c3cc(F)c(O)c(Cl)c3)cc2c1N[C@H]1CC[C@H](N(C)C)CC1 [Example 757, 1-(6-(3-chloro-5-fluoro-4-hydroxyphenyl)-4-((trans-4-(dimethylamino)cyclohexyl)amino)quinolin-3-yl)propan-1-one] |  | 0.069 µM | 0.15 µM | 0.064 µM | 0.0062 µM | 0.76 µM |  |  |  |  |  |  | 
3 | CN(C)CCNc1ccc(Nc2c(C(=O)C3CC3)cnc3ccc(-c4cc(Cl)c(O)c(Cl)c4)cc23)cn1 [Example 747, cyclopropyl(6-(3,5-dichloro-4-hydroxyphenyl)-4-(6-(2-(dimethylamino)ethylamino)pyridin-3-ylamino)quinolin-3-yl)methanone] |  | 0.043 µM | 0.091 µM | 0.16 µM | 0.0043 µM | 2.6 µM |  |  |  |  |  |  | 
4 | O=C(c1cnc2ccc(-c3cc(F)c(O)c(Cl)c3)cc2c1Nc1cccc(CCN2CCCC2)c1)C1CC1 [Example 800, (6-(3-chloro-5-fluoro-4-hydroxyphenyl)-4-(3-(2-(pyrrolidin-1-yl)ethyl)phenylamino)quinolin-3-yl)(cyclopropyl)methanone hydrochloride] |  |  |  |  |  |  | 0.17 µM | 0.046 µM | 0.041 µM | 0.26 µM | 0.012 µM |  | 
5 | O=C(c1cnc2ccc(-c3cc(Cl)c(O)c(Cl)c3)cc2c1Nc1cccc(CCN2CCCC2)c1)C1CC1 [Example 798, cyclopropyl(6-(3,5-dichloro-4-hydroxyphenyl)-4-(3-(2-(pyrrolidin-1-yl)ethyl)phenylamino)quinolin-3-yl)methanone hydrochloride] |  |  |  |  |  |  | 0.092 µM | 0.02 µM | 0.019 µM | 0.16 µM | 0.0029 µM |  | 
6 | CCC(=O)c1cnc2ccc(-c3cc(Cl)c(O)c(Cl)c3)cc2c1Nc1ccc(N2CCC(N)C2)nc1 (stereo not drawn) [Example 761, 1-(4-(6-(3-aminopyrrolidin-1-yl)pyridin-3-ylamino)-6-(3,5-dichloro-4-hydroxyphenyl)quinolin-3-yl)propan-1-one] |  | 0.022 µM | 0.053 µM | 0.031 µM | 0.0026 µM | 1.5 µM |  |  |  |  |  |  | 
7 | COc1cc(-c2ccc3ncc(C(=O)C4CC4)c(Nc4ccc(NCCN(C)C)nc4)c3c2)cc(Cl)c1O [Example 746, (6-(3-chloro-4-hydroxy-5-methoxyphenyl)-4-(6-(2-(dimethylamino)ethylamino)pyridin-3-ylamino)quinolin-3-yl)(cyclopropyl)methanone] |  | 0.11 µM | 0.18 µM | 0.23 µM | 0.0029 µM | 6.2 µM |  |  |  |  |  |  | 
8 | CC(=O)c1cnc2ccc(-c3cc(Cl)c(O)c(Cl)c3)cc2c1N[C@H]1CC[C@H](CN2CCC[C@@H]2CO)CC1 [Example 812] | 0.2 µM | 0.086 µM | 0.18 µM | 0.15 µM | 0.0017 µM |  |  |  |  |  |  |  | 
9 | CC(=O)c1cnc2ccc(-c3cc(F)c(O)c(Cl)c3)cc2c1Nc1ccc(NCCN(C)C)nc1 [Example 762, 1-(6-(3-chloro-5-fluoro-4-hydroxyphenyl)-4-(6-(2-(dimethylamino)ethylamino)pyridin-3-ylamino)quinolin-3-yl)ethanone] |  | 0.089 µM | 0.25 µM | 0.12 µM | 0.014 µM | 5.2 µM |  |  |  |  |  |  | 
10 | CC(=O)c1cnc2ccc(-c3cc(F)c(O)c(Cl)c3)cc2c1Nc1cccc(CCN(C)C)c1 [Example 759, 1-(6-(3-chloro-5-fluoro-4-hydroxyphenyl)-4-(3-(2-(dimethylamino)ethyl)phenylamino)quinolin-3-yl)ethanone] |  | 0.2 µM | 0.42 µM | 0.67 µM | 0.013 µM | 10 µM |  |  |  |  |  |  | 
11 | CC(=O)c1cnc2ccc(-c3cc(Cl)c(O)c(Cl)c3)cc2c1N[C@@H]1CCC[C@@H](CN(C)C)C1 [Example 750, 1-(6-(3,5-dichloro-4-hydroxyphenyl)-4-((1R,3R)-3-((dimethylamino)methyl)cyclohexylamino)quinolin-3-yl)ethanone] |  | 0.19 µM | 0.39 µM | 0.2 µM | 0.0023 µM | 1.7 µM |  |  |  |  |  |  | 
12 | CCC(=O)c1cnc2ccc(-c3cc(Cl)c(O)c(OC)c3)cc2c1N[C@H]1CC[C@H](N(C)C)CC1 [Example 755] |  | 0.21 µM | 0.34 µM | 0.35 µM | 0.0018 µM | 3.4 µM |  |  |  |  |  |  | 
13 | CCC(=O)c1cnc2ccc(-c3cc(Cl)c(O)c(Cl)c3)cc2c1N[C@H]1CC[C@H](N(C)C)CC1 [Example 754, 1-(6-(3,5-dichloro-4-hydroxyphenyl)-4-((trans-4-(dimethylamino)cyclohexyl)amino)quinolin-3-yl)propan-1-one] |  | 0.072 µM | 0.22 µM | 0.19 µM | 0.02 µM | 10 µM |  |  |  |  |  |  | 
14 | COc1cc(-c2ccc3ncc(C(C)=O)c(N[C@@H]4CCC[C@@H](CN(C)C)C4)c3c2)cc(Cl)c1O [Example 752, 1-(6-(3-chloro-4-hydroxy-5-methoxyphenyl)-4-((1R,3R)-3-((dimethylamino)methyl)cyclohexylamino)quinolin-3-yl)ethanone] |  | 0.17 µM | 0.2 µM | 0.18 µM | 0.001 µM | 3.4 µM |  |  |  |  |  |  | 
15 | CC(=O)c1cnc2ccc(-c3cc(Cl)c(O)c(Cl)c3)cc2c1Nc1ccc(NCCN(C)C)nc1 [Example 758, 1-(6-(3,5-dichloro-4-hydroxyphenyl)-4-(6-(2-(dimethylamino)ethylamino)pyridin-3-ylamino)quinolin-3-yl)ethanone] |  | 0.055 µM | 0.22 µM | 0.15 µM | 0.0053 µM | 24 µM |  |  |  |  |  |  | 
16 | O=C(c1cnc2ccc(-c3cc(Cl)c(O)c(Cl)c3)cc2c1N1CCC(CCN2CCCC2)CC1)C1CC1 [Example 756, cyclopropyl(6-(3,5-dichloro-4-hydroxyphenyl)-4-(4-(2-(pyrrolidin-1-yl)ethyl)piperidin-1-yl)quinolin-3-yl)methanone] |  | 0.27 µM | 0.54 µM | 0.5 µM |  | 10 µM |  |  |  |  |  |  | 
17 | CC(=O)c1cnc2ccc(-c3cc(F)c(O)c(Cl)c3)cc2c1N[C@@H]1CCC[C@@H](CN(C)C)C1 [Example 751, 1-(6-(3-chloro-5-fluoro-4-hydroxyphenyl)-4-((1R,3R)-3-((dimethylamino)methyl)cyclohexylamino)quinolin-3-yl)ethanone] |  | 0.29 µM | 0.58 µM | 0.32 µM | 0.0067 µM | 1.7 µM |  |  |  |  |  |  | 
18 | COc1cc(-c2ccc3ncc(C(C)=O)c(N[C@H]4CC[C@H](CN5CCC(O)C5)CC4)c3c2)cc(Cl)c1O (stereo partly drawn) [Example 749] |  | 0.21 µM | 0.22 µM | 0.12 µM | 0.0017 µM | 6.4 µM |  |  |  |  |  |  | 
19 | CC(=O)c1cnc2ccc(-c3cc(Cl)c(O)c(Cl)c3)cc2c1N[C@H]1CC[C@H](CN2CCC(O)C2)CC1 (stereo partly drawn) [Example 753] |  | 0.057 µM | 0.37 µM | 0.13 µM | 0.0015 µM | 71 µM |  |  |  |  |  |  | 
20 | CCC(=O)c1cnc2ccc(-c3cc(F)c(O)c(Cl)c3)cc2c1Nc1ccc(N2CCC(N)C2)nc1 (stereo not drawn) [Example 760, 1-(4-(6-(3-aminopyrrolidin-1-yl)pyridin-3-ylamino)-6-(3-chloro-5-fluoro-4-hydroxyphenyl)quinolin-3-yl)propan-1-one] |  | 0.016 µM | 0.031 µM | 0.0087 µM | 0.0034 µM | 0.77 µM |  |  |  |  |  |  | 
21 | CCCC(=O)c1cnc2ccc(-c3cc(Cl)c(O)c(OC)c3)cc2c1N[C@H]1CC[C@H](N)CC1 [Example 529, 1-(4-((trans-4-aminocyclohexyl)amino)-6-(3-chloro-4-hydroxy-5-methoxyphenyl)quinolin-3-yl)butan-1-one] |  |  | 0.15 µM | 0.081 µM | 0.0038 µM |  |  |  |  |  |  | 0.076 µM | 1.5 µM
22 | O=C(c1cnc2ccc(-c3cc(Cl)c(O)c(Cl)c3)cc2c1N1CCC(C2CCNCC2)CC1)C1CC1 [Example 596, (4-(4,4′-bipiperidin-1-yl)-6-(3,5-dichloro-4-hydroxyphenyl)quinolin-3-yl)(cyclopropyl)methanone] |  |  | 1.5 µM | 0.18 µM | 0.0016 µM |  |  |  |  |  |  | 0.14 µM | 5.1 µM
23 | CN1CCC(n2cc(Nc3c(C(=O)C4CC4)cnc4ccc(-c5cc(F)c(O)c(Cl)c5)cc34)cn2)CC1 [Example 592, (6-(3-Chloro-5-fluoro-4-hydroxyphenyl)-4-(1-(1-methylpiperidin-4-yl)-1H-pyrazol-4-ylamino)quinolin-3-yl)(cyclopropyl)methanone] |  |  | 0.13 µM | 0.24 µM | 0.0015 µM |  |  |  |  |  |  | 0.068 µM | 2.8 µM
